Measured values: patent US20080032985A1, “4-Substituted Quinoline Derivatives, Method and Intermediates for Their Preparation and Pharmaceutical Compositions Containing Them” (priority 2004, published 2008)
Converted amounts (≈) assume the structure as drawn.

Columns and labels:
[1] = tested on: M. catarrhalis IPA151 sensitive; assay: MIC by dilutions in agar medium (NCCLS), Gram-negative; assay type: cell-based; conditions: Moraxella catarrhalis, IPA151SENSITIVE; at 48 hours; agar dilution
Description: (§1) The method of dilutions in agar medium in agreement with the NCCLS recommendations is used for the determination of the minimum inhibitory concentrations (MIC) expressed in mg/l.
(§2) The activities of the compounds of examples 5, 8, 10-13 are grouped together in the following table: […]

[2] = tested on: H. influenzae MDK 1528 sensitive; assay: as above; assay type: cell-based; conditions: Haemophilus influenzae; at 48 hours; agar dilution
Description: as §1, §2

[3] = tested on: S. pneumoniae 6254-01 MLSB resistant; assay: MIC by dilutions in agar medium (NCCLS), Gram-positive; assay type: cell-based; conditions: Streptococcus pneumoniae; at 24 hours; agar dilution
Description: as §1, §2

[4] = tested on: E. faecalis ATCC S343211 vancomycin resistant; assay: as above; assay type: cell-based; conditions: Enterococcus faecalis; at 24 hours; agar dilution
Description: as §1, §2

[5] = tested on: S. aureus AS 5155 methicillin resistant; assay: as above; assay type: cell-based; conditions: Staphylococcus aureus; at 24 hours; agar dilution
Description: as §1, §2

[6] = tested on: S. aureus IP8203 sensitive; assay: as above; assay type: cell-based; conditions: Staphylococcus aureus; at 24 hours; agar dilution
Description: as §1, §2

| MIC [1] [µg/mL] | MIC [2] [µg/mL] | MIC [3] [µg/mL] | MIC [4] [µg/mL] | MIC [5] [µg/mL] | MIC [6] [µg/mL] | melting point [°C] | Compound |
| --- | --- | --- | --- | --- | --- | --- | --- |
| 0.5 to 4 (≈ 1.09 to 8.72 µM) | 2 to 8 (≈ 4.36 to 17.4 µM) | 0.25 to 0.5 (≈ 0.545 to 1.09 µM) | 0.25 to 1 (≈ 0.545 to 2.18 µM) | 0.12 to 1 (≈ 0.262 to 2.18 µM) | 0.12 to 1 (≈ 0.262 to 2.18 µM) |  | COc1ccc2ncc(F)c(CCCC(CNC/C=C/c3cc(F)ccc3F)C(=O)O)c2c1 (racemic) [Example 5, (RS)-2-{[(E)-3-(2,5-difluorophenyl)allylamino]methyl}-5-(3-fluoro-6-methoxyquinolin-4-yl)pentanoic acid] |
| 0.5 to 4 (≈ 1.09 to 8.69 µM) | 2 to 8 (≈ 4.34 to 17.4 µM) | 0.25 to 0.5 (≈ 0.543 to 1.09 µM) | 0.25 to 1 (≈ 0.543 to 2.17 µM) | 0.12 to 1 (≈ 0.261 to 2.17 µM) | 0.12 to 1 (≈ 0.261 to 2.17 µM) |  | COc1ccc2ncc(F)c(CCCC(CNCCCc3cc(F)ccc3F)C(=O)O)c2c1 (racemic) [Example 8, (RS)-2-{[3-(2,5-difluorophenyl)propylamino]methyl}-5-(3-fluoro-6-methoxyquinolin-4-yl)pentanoic acid] |
| 0.5 to 4 | 2 to 8 | 0.25 to 0.5 | 0.25 to 1 | 0.12 to 1 | 0.12 to 1 |  | COc1ccc2ncc(F)c(CCCC(CN(C)C/C=C/c3cc(F)ccc3F)C(=O)[O-])c2c1.[Na+] (racemic) [Example 10, Sodium (RS)-2-({N-[(E)-3-(2,5-difluorophenyl)allyl]-N-methylamino}methyl)-5-(3-fluoro-6-methoxyquinolin-4-yl)pentanoate] |
| 0.5 to 4 (≈ 1.11 to 8.92 µM) | 2 to 8 (≈ 4.46 to 17.8 µM) | 0.25 to 0.5 (≈ 0.557 to 1.11 µM) | 0.25 to 1 (≈ 0.557 to 2.23 µM) | 0.12 to 1 (≈ 0.268 to 2.23 µM) | 0.12 to 1 (≈ 0.268 to 2.23 µM) |  | COc1ccc2ncc(F)c(CCCC(CNCCSc3cccs3)C(=O)O)c2c1 (racemic) [Example 11, (RS)-5-(3-Fluoro-6-methoxyquinolin-4-yl)-2-{[2-(thiophen-2-ylsulfanyl)ethylamino]methyl}pentanoic acid] |
| 0.5 to 4 (≈ 1.04 to 8.36 µM) | 2 to 8 (≈ 4.18 to 16.7 µM) | 0.25 to 0.5 (≈ 0.522 to 1.04 µM) | 0.25 to 1 (≈ 0.522 to 2.09 µM) | 0.12 to 1 (≈ 0.251 to 2.09 µM) | 0.12 to 1 (≈ 0.251 to 2.09 µM) |  | COc1ccc2ncc(F)c(CCCC(CNCCSc3cc(F)ccc3F)C(=O)O)c2c1 (racemic) [Example 12, (RS)-2-{[2-(2,5-Difluorophenylsulfanyl)ethylamino]-methyl}-5-(3-fluoro-6-methoxyquinolin-4-yl)pentanoic acid] |
| 0.5 to 4 (≈ 1.08 to 8.65 µM) | 2 to 8 (≈ 4.32 to 17.3 µM) | 0.25 to 0.5 (≈ 0.541 to 1.08 µM) | 0.25 to 1 (≈ 0.541 to 2.16 µM) | 0.12 to 1 (≈ 0.259 to 2.16 µM) | 0.12 to 1 (≈ 0.259 to 2.16 µM) |  | COc1ccc2ncc(F)c(CCCC(CNCCOc3cc(F)ccc3F)C(=O)O)c2c1 (racemic) [Example 13, (RS)-2-{[2-(2,5-Difluorophenoxy)ethylamino]methyl}-5-(3-fluoro-6-methoxyquinolin-4-yl)pentanoic acid] |
|  |  |  |  |  |  | 120 | COc1ccc2ncc(F)c(CCCC(CN(C/C=C/c3cc(F)ccc3F)CCF)C(=O)O)c2c1 (racemic) [Example 14, (RS)-2-{[N-[(E)-3-(2,5-difluorophenyl)allyl]-N-(2-fluoroethyl)amino]methyl}-5-(3-fluoro-6-methoxy-quinolin-4-yl)pentanoic acid] |
|  |  |  |  |  |  | 168 | COc1ccc2ncc(F)c(CCCC(CNC/C=C/c3cc(F)ccc3F)C(=O)O)c2c1 (single isomer, unassigned) [Example 6, 2-{[(E)-3-(2,5-difluorophenyl)allylamino]methyl}-5-(3-fluoro-6-methoxyquinolin-4-yl)pentanoic acid] |
|  |  |  |  |  |  | 166 | COc1ccc2ncc(F)c(CCCC(CNC/C=C/c3cc(F)ccc3F)C(=O)O)c2c1 (single isomer, unassigned) [Example 7, 2-{[(E)-3-(2,5-difluorophenyl)allylamino]methyl}-5-(3-fluoro-6-methoxyquinolin-4-yl)pentanoic acid] |
